The values below are quoted from earlier work in patent publication US10729778B2, “Carrier-linked treprostinil prodrugs” (Ascendis Pharma A/S, priority 2011, dated 2020).

Structures are written as SMILES.

The conditions of this data set: background statement.

A word on the half-life: it is the time in which the quantity being followed falls by half. As to `CCCCC[C@H](O)CC[C@@H]1[C@H]2Cc3cccc(OCC(=O)O)c3C[C@H]2C[C@H]1O` [Treprostinil], the half-life was 4 h.
